{"source": "patent US20100098662A1", "about": "“TREATMENT OF LIVER DISEASES IN WHICH IRON PLAYS A ROLE IN PATHOGENESIS” (priority 2005, published 2010)", "key": {"[1]": {"assay": "Clinical dose-escalation trial of Compound I: pharmacokinetics", "format": "in vivo, human", "experimental": "(§1) A randomized, double-blind, placebo-controlled, dose-escalation trial of Compound I in 24 adult β-thalassemia patients in which the safety, tolerability, PK and cumulative iron balance of 12 days of Compound I are assessed (10 mg/kg (n=5), 20 mg/kg (n=6), 40 mg/kg (n=7), and placebo (n=6)."}, "[2]": {"test_system": "adult β-thalassemia patients", "assay": "Clinical dose-escalation trial of Compound I: iron balance and efficiency of chelation", "format": "in vivo, human", "experimental": "as §1\nEfficiency of chelation is based on average daily net iron excretion, and is calculated as the ratio between […], relative to body weight. The theoretical amount of iron is obtained from the consideration that two molecules of Compound I are needed to chelate a single atom of iron. The molecular weight of Compound I being 373.4, and that of iron 55.85. The efficiency is therefore calculated as:\nEfficiency=(Feexcr*2*373.4)/(DoseCompound×55.85)×100%) • DoseCompound and Feexcr are given in mg/kg body weight."}, "[3]": {"test_system": "Long-Evans cinnamon (LEC) rat", "assay": "Spontaneous acute hepatitis in LEC rat model", "format": "in vivo", "settings": "male LEC rats, oral 14 and 28 mg/kg/day", "experimental": "Long-Evans cinnamon (LEC) rat is a mutant strain displaying hereditary hepatitis and spontaneous liver cancer. Compound I has been tested for efficacy on acute hepatitis in LEC rat model.\nMethods: Compound I was administered orally to male LEC rats by gavage on does of 0, 14 and 28 mg/kg/day, starting at 6-week-old and continuing till 18-week-old. Each four rats were sacrificed on 9, 12, 14, 16 and 18-week-old in Compound I—treated groups and control group.\nOn sacrificing, peripheral blood was collected for monitoring the biochemical markers, including the serum alanine transaminase (ALT). Liver tissue were histologically examined."}, "[4]": {"test_system": "thalassemia patients (iron-overloaded)", "assay": "ALT values of thalassemia patients after one year of treatment", "format": "in vivo, human", "experimental": "(§2) Patients were iron-overloaded patients and were treated with different doses of Compound I for one year.\n(§3) ALT was measured according to standard biomedical techniques, e.g. using the International Federation of Clinical Chemistry reference method as described in Brinkmann T, Dreier J, Diekmann J, Gotting C, Klauke R, Schumann G, Kleesiek K. Alanine aminotransferase cut-off values for blood donor screening using the new International Federation of Clinical Chemistry reference method at 37 degrees C. Vox Sang. 2003 85(3): 159-64.\n(§4) The baseline ALT value is defined as the patient ALT value determined for the patient at the stage of enrollment in the clinical trial, i.e. the ALT baseline value is the ALT value of the patient before starting Compound I treatment."}, "[5]": {"test_system": "rare anemia patients (iron-overloaded)", "assay": "ALT values of rare anemia patients after one year of treatment", "format": "in vivo, human", "experimental": "as §2, §3, §4"}}}
{"smiles": "O=C(O)c1ccc(-n2nc(-c3ccccc3O)nc2-c2ccccc2O)cc1", "note": "[Compound I, 4-[3,5-Bis-(2-hydroxyphenyl)-[1,2,4]-triazol-1-yl]benzoic acid]", "values": [{"measurement": "Exposure (Cmax and AUC) increase with dose", "setting": "[1]; after single dose administration", "result": "slightly over-proportionally"}, {"measurement": "Exposure (Cmax and AUC) increase with dose", "setting": "[1]; during steady state", "result": "approximately proportional"}, {"measurement": "half-life", "setting": "[1]; human, blood, at steady state, read-out: mean elimination half-life t1/2", "result": "12 to 13", "unit": "h"}, {"measurement": "absorption", "setting": "[1]; β-thalassemia patients, 10, 20, 40 mg/kg, 12 days", "result": "rapidly absorbed"}, {"measurement": "Negative iron balance (average daily net iron excretion)", "setting": "[2]; 10 mg/kg dose", "result": "approximately 0.127 mg/kg/day"}, {"measurement": "efficiency of chelation", "setting": "[2]; 10 mg/kg dose group", "result": 16, "unit": "%"}, {"measurement": "efficiency of chelation", "setting": "[2]; 20 mg/kg", "result": 22, "unit": "%"}, {"measurement": "Negative iron balance (average daily net iron excretion)", "setting": "[2]; 20 mg/kg dose", "result": "~0.343", "unit": "mg/kg/day"}, {"measurement": "efficiency of chelation", "setting": "[2]; 40 mg/kg", "result": 15, "unit": "%"}, {"measurement": "Negative iron balance (average daily net iron excretion)", "setting": "[2]; 40 mg/kg dose", "result": "~0.564", "unit": "mg/kg/day"}, {"measurement": "iron excretion", "setting": "[2]; iron balance studies, almost entirely in the feces", "result": "dose-dependent increase"}, {"measurement": "Hepatic iron accumulation assessed by Prussian blue staining vs control group", "setting": "[3]", "result": "markedly reduced"}, {"measurement": "serum ALT level vs control group", "setting": "[3]; at 18-week-old", "result": "significantly lower"}, {"measurement": "Mean of ALT", "setting": "[4]; 5 mg/kg/day", "result": 35.25, "unit": "Units/liter"}, {"measurement": "Mean of ALT", "setting": "[4]; 10 mg/kg/day", "result": 26.62, "unit": "Units/liter"}, {"measurement": "Mean of ALT", "setting": "[4]; 20 mg/kg/day", "result": 3.17, "unit": "Units/liter"}, {"measurement": "Mean of ALT", "setting": "[4]; 30 mg/kg/day", "result": "−23.56", "unit": "Units/liter"}, {"measurement": "Mean of ALT", "setting": "[5]; 5 mg/kg/day", "result": 67.42, "unit": "Units/liter"}, {"measurement": "Mean of ALT", "setting": "[5]; 10 mg/kg/day", "result": 14.22, "unit": "Units/liter"}, {"measurement": "Mean of ALT", "setting": "[5]; 20 mg/kg/day", "result": "−3.27", "unit": "Units/liter"}, {"measurement": "Mean of ALT", "setting": "[5]; 30 mg/kg/day", "result": "−14.19", "unit": "Units/liter"}]}
